Measured values as given in paper PMC12723449, “From Pharmacophore to Warhead: NAD^+‐Targeting Triazoles as Mechanism‐Based Sirtuin Inhibitors” (Angewandte Chemie (International Ed. in English), 2025).

Tests used:
[1] = biological target: T1, HEK293T cells overexpressing a NanoLuc–SIRT2 fusion protein (Homo sapiens, UniProt Q8IXJ6); assay: CE-ESI-MS analysis of adducts formed in cellulo; type: cell-based; details: 20 µM, 3 h
T1 construct: transfected HEK293T cells expressing the NanoLuc-tagged SIRT250-356 fusion protein were used instead of transient; expressed in transfected cells; host or cells: HEK293T (stably transfected)
T1 sequence (Q8IXJ6 50-356 limits assumed): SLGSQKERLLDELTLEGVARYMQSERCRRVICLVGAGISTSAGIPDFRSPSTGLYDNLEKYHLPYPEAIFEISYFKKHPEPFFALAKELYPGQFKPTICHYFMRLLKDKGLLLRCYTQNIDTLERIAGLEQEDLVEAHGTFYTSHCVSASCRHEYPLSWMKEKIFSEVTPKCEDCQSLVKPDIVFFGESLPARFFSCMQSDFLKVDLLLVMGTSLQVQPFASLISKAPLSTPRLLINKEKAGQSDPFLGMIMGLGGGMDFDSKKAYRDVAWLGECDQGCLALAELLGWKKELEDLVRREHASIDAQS

SIRT2 = biological target: T2, SIRT2 (Homo sapiens, UniProt Q8IXJ6); assay: Fluorescence polarization assay (FPA); type: binding; details: with versus without NAD+
T2 construct: For assay experiments, strep-tagged human SIRT1134−747 and SIRT256-356 were expressed and purified as previously; Strep-tag; made in house; host or cells: E. coli BL21 Star (DE3)
T2 sequence (Q8IXJ6 56-356 limits assumed): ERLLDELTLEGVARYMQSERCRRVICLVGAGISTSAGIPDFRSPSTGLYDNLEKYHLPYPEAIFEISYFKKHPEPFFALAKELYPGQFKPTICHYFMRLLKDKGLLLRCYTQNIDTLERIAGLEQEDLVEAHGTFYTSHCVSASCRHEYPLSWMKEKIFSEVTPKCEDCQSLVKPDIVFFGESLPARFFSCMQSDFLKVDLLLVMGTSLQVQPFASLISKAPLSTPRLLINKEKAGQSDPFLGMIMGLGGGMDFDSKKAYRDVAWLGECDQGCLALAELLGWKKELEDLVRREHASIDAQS
Experimental: Protein expression and purification for assays and crystallization
For assay experiments, strep-tagged human SIRT1134−747 and SIRT256-356 were expressed and purified as previously described.[2,4] Briefly, chemically competent E. coli BL21 Star (DE3) cells were transformed with pET30S-hSIRT1134−747 or pET30S-hSIRT256−356 plasmids. Cell cultures were grown in 2× YT medium (5 g/L NaCl, 16 g/L tryptone, 10 g/L yeast extract) supplemented with 50 μg/mL kanamycin at 37 °C reaching an OD600 of 0.6 − 0.7.
Protein expression of SIRT1134−747 and SIRT256−356 was induced with 1 mM IPTG (isopropyl β- D-1-thiogalactopyranoside), followed by incubation for 16 h at 20 °C. […]
Protein purity and identity were confirmed by SDS-PAGE and protein concentration was determined using the BCA assay with BSA as a standard. […] […]
A solution of 10 µL SIRT2 (final concentration of 6.0 µM) and SYPRO Orange (5x, Sigma-Aldrich, Germany) in assay buffer (25 mM Tris-HCl, 150 mM NaCl, 1 mM DTT, pH 8.0) was mixed with 10 µL of compound and incubated at 25 °C and 350 rpm for 5 min. […] Fluorescence intensity was recorded during a temperature gradient of 1°C per 20 s from 25 to 95°C using a real-time PCR machine (C1000 Touch™ Thermal Cycler, CFX96™ Real-Time System, BioRad, USA). […]

Row | ADPR adduct formation in cells by CE-ESI-MS/MS [1] | change of affinity upon NAD+ addition (FP) (SIRT2) | Compound
1 | confirmed formation of 7–ADPR in cellulo | increased affinities upon NAD+ addition | Cc1cc(C)nc(SCC(=O)Nc2ncc(Cc3cccc(OCc4c[nH]nn4)c3)s2)n1 [Compound 7]
2 |  | increased affinities upon NAD+ addition | COCCn1cc(COc2cccc(Cc3cnc(NC(=O)CSc4nc(C)cc(C)n4)s3)c2)nn1 [Compound 1, reference compound]
